Reference: PubChem BioAssay AID720673 (NMMLSC, 2013)
Calls of active or inactive are those of the source. How the calls were made is not given here.

The compounds below were run against Botulinum neurotoxin type A light chain (Clostridium botulinum A ATCC 3502) (assay: BoNT/A light chain protease inhibitors, dose response, biochemical, powder set 03 (AID 720673)). Conditions: BoNT/A LC protease, multiplex microsphere substrate cleavage assay.
In the case of `O=C(Nc1ccc2nc(-c3cccs3)c(-c3cccs3)nc2c1)C1CC1`, the EC50 is reported as > 20 µM (inactive).
For `CCCS(=O)(=O)Nc1ccc2nc(-c3cccs3)c(-c3cccs3)nc2c1`, the EC50 was > 20 µM (inactive).
`O=C(Nc1ccc2nc(-c3ccccc3)c(-c3ccccc3)nc2c1)C1CC1` was tested, and the EC50 was > 20 µM (inactive).
With `N#Cc1ccc(-c2cn3nc(-c4ccc(F)cc4)c(-c4ccc(F)cc4)nc3n2)cc1` the EC50 was > 20 µM (inactive).
`CC(C)OC(=O)Nc1ccc2nc(-c3cccs3)c(-c3cccs3)nc2c1` was tested, and the EC50 was > 20 µM (inactive).
`COc1cccc(-c2cn3nc(-c4ccc(C)cc4)c(-c4ccc(C)cc4)nc3n2)c1` was tested, and the EC50 was 6.6 µM.
Work on `COc1ccccc1-c1cn2nc(-c3ccccc3)c(-c3ccccc3)nc2n1` yielded an EC50 of 10.9 µM.
In the case of `CCC(=O)Nc1ccc2nc(-c3cccs3)c(-c3cccs3)nc2c1`, the EC50 is reported as > 20 µM (inactive).
`Cc1ccc(-c2nc3nc(-c4ccc(C#N)cc4)cn3nc2-c2ccc(C)cc2)cc1` showed an EC50 of 4.7 µM.
For `Fc1cccc(-c2cn3nc(-c4ccccc4)c(-c4ccccc4)nc3n2)c1`, the EC50 was > 20 µM (inactive).
In the case of `CCS(=O)(=O)Nc1ccc2nc(-c3ccccc3)c(-c3ccccc3)nc2c1`, the EC50 is reported as > 20 µM (inactive).
With `COc1ccc(-c2nc3nc(-c4ccc(C)cc4)cn3nc2-c2ccc(OC)cc2)cc1` the EC50 was > 20 µM (inactive).
`Cc1ccc(-c2nc3nc(-c4ccccc4)cn3nc2-c2ccc(C)cc2)cc1` gave an EC50 of 7.4 µM.
For `CC(Oc1ccccc1)C(=O)Nc1ccc2nc(-c3ccccc3)c(-c3ccccc3)nc2c1` (configuration not stated), the EC50 was > 20 µM (inactive).
With `CC(=O)Nc1ccc2nc(-c3ccccc3)c(-c3ccccc3)nc2c1` the EC50 was > 20 µM (inactive).
With `COc1ccc(-c2cn3nc(-c4ccc(OC)cc4)c(-c4ccc(OC)cc4)nc3n2)cc1` the EC50 was 5.7 µM.
For `O=S(=O)(Nc1ccc2nc(-c3cccs3)c(-c3cccs3)nc2c1)C1CC1`, the EC50 was > 20 µM (inactive).
With `CC(C)NC(=O)Nc1ccc2nc(-c3ccccc3)c(-c3ccccc3)nc2c1` the EC50 was > 20 µM (inactive).
With `O=C(Nc1ccc2nc(-c3ccccc3)c(-c3ccccc3)nc2c1)NC1CCCC1` the EC50 was > 20 µM (inactive).
`Cc1ccc(-c2cn3nc(-c4ccc(F)cc4)c(-c4ccc(F)cc4)nc3n2)cc1` gave an EC50 of 7.7 µM.
For `O=C(Nc1ccc2nc(-c3ccccc3)c(-c3ccccc3)nc2c1)C1CCCCC1`, the EC50 was > 20 µM (inactive).
`COC(=O)Nc1ccc2nc(-c3ccccc3)c(-c3ccccc3)nc2c1` was tested, and the EC50 was > 20 µM (inactive).
Work on `COc1ccccc1-c1cn2nc(-c3ccc(C)cc3)c(-c3ccc(C)cc3)nc2n1` yielded an EC50 of 12.4 µM.
`COc1ccc(-c2cn3nc(-c4ccc(C)cc4)c(-c4ccc(C)cc4)nc3n2)c(OC)c1` showed an EC50 of 9.5 µM.
In the case of `COC(=O)Nc1ccc2nc(-c3cccs3)c(-c3cccs3)nc2c1`, the EC50 is reported as > 20 µM (inactive).
In the case of `CC(C)(C)NC(=O)Nc1ccc2nc(-c3ccccc3)c(-c3ccccc3)nc2c1`, the EC50 is reported as > 20 µM (inactive).
With `O=C(Nc1ccc2nc(-c3ccccc3)c(-c3ccccc3)nc2c1)OCc1ccccc1` the EC50 was > 20 µM (inactive).
In the case of `CC(C)CS(=O)(=O)Nc1ccc2nc(-c3ccccc3)c(-c3ccccc3)nc2c1`, the EC50 is reported as > 20 µM (inactive).
`O=C(Nc1ccc2nc(-c3cccs3)c(-c3cccs3)nc2c1)OCc1ccccc1` was tested, and the EC50 was 10.6 µM.
In the case of `O=C(Nc1ccc2nc(-c3cccs3)c(-c3cccs3)nc2c1)C1CCC1`, the EC50 is reported as > 20 µM (inactive).
In the case of `O=C(Nc1ccc2nc(-c3cccs3)c(-c3cccs3)nc2c1)NC1CCCC1`, the EC50 is reported as > 20 µM (inactive).
In the case of `CC(C)NC(=O)Nc1ccc2nc(-c3cccs3)c(-c3cccs3)nc2c1`, the EC50 is reported as > 20 µM (inactive).
For `COc1ccc(-c2nc3nc(-c4cccc(F)c4)cn3nc2-c2ccc(OC)cc2)cc1`, the EC50 was 7 µM.
`COc1ccc(-c2nc3nc(-c4ccccc4)cn3nc2-c2ccc(OC)cc2)cc1` was tested, and the EC50 was 9.2 µM.
In the case of `CCNC(=S)Nc1ccc2nc(-c3ccccc3)c(-c3ccccc3)nc2c1`, the EC50 is reported as > 20 µM (inactive).
In the case of `O=C(Nc1ccc2nc(-c3ccccc3)c(-c3ccccc3)nc2c1)C1CCC1`, the EC50 is reported as > 20 µM (inactive).
For `Fc1ccc(-c2nc3nc(-c4cccc(F)c4)cn3nc2-c2ccc(F)cc2)cc1`, the EC50 was 8.6 µM.
In the case of `FC(F)(F)Oc1ccc(-c2cn3nc(-c4ccccc4)c(-c4ccccc4)nc3n2)cc1`, the EC50 is reported as > 20 µM (inactive).
`Clc1ccc(-c2cn3nc(-c4ccccc4)c(-c4ccccc4)nc3n2)c(Cl)c1` was tested, and the EC50 was > 20 µM (inactive).
In the case of `Cc1ccc(-c2cn3nc(-c4ccc(C)cc4)c(-c4ccc(C)cc4)nc3n2)cc1`, the EC50 is reported as 4.7 µM.
With `CC(C)(C)C(=O)Nc1ccc2nc(-c3ccccc3)c(-c3ccccc3)nc2c1` the EC50 was > 20 µM (inactive).
Work on `COc1ccc(-c2cn3nc(-c4ccc(C)cc4)c(-c4ccc(C)cc4)nc3n2)cc1` yielded an EC50 of 5 µM.
For `COc1ccc(-c2nc3nc(-c4ccc(OC)cc4OC)cn3nc2-c2ccc(OC)cc2)cc1`, the EC50 was > 20 µM (inactive).
For `CS(=O)(=O)c1ccc(-c2cn3nc(-c4ccc(F)cc4)c(-c4ccc(F)cc4)nc3n2)cc1`, the EC50 was > 20 µM (inactive).
`COc1ccc(-c2nc3nc(-c4ccc(OC(F)(F)F)cc4)cn3nc2-c2ccc(OC)cc2)cc1` was tested, and the EC50 was 4.2 µM.
Work on `COc1cccc(-c2cn3nc(-c4ccccc4)c(-c4ccccc4)nc3n2)c1` yielded an EC50 of 16.2 µM.
For `Cc1ccc(-c2nc3nc(-c4ccc(S(C)(=O)=O)cc4)cn3nc2-c2ccc(C)cc2)cc1`, the EC50 was 7.6 µM.
With `CCOC(=O)Nc1ccc2nc(-c3ccccc3)c(-c3ccccc3)nc2c1` the EC50 was > 20 µM (inactive).
Work on `COc1ccc(-c2nc3nc(-c4ccccc4OC)cn3nc2-c2ccc(OC)cc2)cc1` yielded an EC50 of 8.9 µM.
For `O=C(Nc1ccc2nc(-c3ccccc3)c(-c3ccccc3)nc2c1)C1CCCC1`, the EC50 was > 20 µM (inactive).
In the case of `CCCCOC(=O)Nc1ccc2nc(-c3cccs3)c(-c3cccs3)nc2c1`, the EC50 is reported as > 20 µM (inactive).
With `COc1ccc(-c2nc3nc(-c4cccc(OC)c4)cn3nc2-c2ccc(OC)cc2)cc1` the EC50 was 14.7 µM.
`Fc1ccc(-c2nc3nc(-c4ccccc4)cn3nc2-c2ccc(F)cc2)cc1` was tested, and the EC50 was 11.1 µM.
Work on `COc1ccccc1-c1cn2nc(-c3ccc(F)cc3)c(-c3ccc(F)cc3)nc2n1` yielded an EC50 of 6.2 µM.
Compound `Cc1ccc(-c2nc3nc(-c4ccc(OC(F)(F)F)cc4)cn3nc2-c2ccc(C)cc2)cc1` has an EC50 of 4 µM.
With `CCC(=O)Nc1ccc2nc(-c3ccccc3)c(-c3ccccc3)nc2c1` the EC50 was > 20 µM (inactive).
Work on `Cc1ccc(-c2nc3nc(-c4ccc(F)cc4)cn3nc2-c2ccc(C)cc2)cc1` yielded an EC50 of 7.6 µM.
`CCOC(=O)Nc1ccc2nc(-c3cccs3)c(-c3cccs3)nc2c1` was tested, and the EC50 was > 20 µM (inactive).
In the case of `CCCS(=O)(=O)Nc1ccc2nc(-c3ccccc3)c(-c3ccccc3)nc2c1`, the EC50 is reported as > 20 µM (inactive).
For `Fc1ccc(-c2cn3nc(-c4ccccc4)c(-c4ccccc4)nc3n2)cc1`, the EC50 was > 20 µM (inactive).
For `Cc1ccc(-c2nc3nc(-c4cccc(F)c4)cn3nc2-c2ccc(C)cc2)cc1`, the EC50 was 5.2 µM.
With `O=S(=O)(Nc1ccc2nc(-c3ccccc3)c(-c3ccccc3)nc2c1)C1CC1` the EC50 was > 20 µM (inactive).
Compound `Fc1ccc(-c2cn3nc(-c4ccc(F)cc4)c(-c4ccc(F)cc4)nc3n2)cc1` has an EC50 of 6.7 µM.
In the case of `COc1ccc(-c2cn3nc(-c4ccc(F)cc4)c(-c4ccc(F)cc4)nc3n2)cc1`, the EC50 is reported as 7.1 µM.
Compound `CS(=O)(=O)c1ccc(-c2cn3nc(-c4ccccc4)c(-c4ccccc4)nc3n2)cc1` has an EC50 of 11.6 µM.
For `CCCOC(=O)Nc1ccc2nc(-c3ccccc3)c(-c3ccccc3)nc2c1`, the EC50 was > 20 µM (inactive).
`CCCCOC(=O)Nc1ccc2nc(-c3ccccc3)c(-c3ccccc3)nc2c1` was tested, and the EC50 was > 20 µM (inactive).
`CC(C)OC(=O)Nc1ccc2nc(-c3ccccc3)c(-c3ccccc3)nc2c1` was tested, and the EC50 was > 20 µM (inactive).
With `CCCNC(=O)Nc1ccc2nc(-c3ccccc3)c(-c3ccccc3)nc2c1` the EC50 was > 20 µM (inactive).
`COc1ccc(-c2cn3nc(-c4ccc(F)cc4)c(-c4ccc(F)cc4)nc3n2)c(OC)c1` was tested, and the EC50 was 5.7 µM.
For `O=C(Nc1ccc2nc(-c3cccs3)c(-c3cccs3)nc2c1)C1CCCC1`, the EC50 was > 20 µM (inactive).
`CCNC(=O)Nc1ccc2nc(-c3cccs3)c(-c3cccs3)nc2c1` was tested, and the EC50 was 14.3 µM.
For `COc1ccc(-c2nc3nc(-c4ccc(S(C)(=O)=O)cc4)cn3nc2-c2ccc(OC)cc2)cc1`, the EC50 was > 20 µM (inactive).
`CC(C)CS(=O)(=O)Nc1ccc2nc(-c3cccs3)c(-c3cccs3)nc2c1` was tested, and the EC50 was > 20 µM (inactive).
`COc1ccc(-c2nc3nc(-c4ccc(F)cc4)cn3nc2-c2ccc(OC)cc2)cc1` gave an EC50 of 4 µM.
With `CCNC(=O)Nc1ccc2nc(-c3ccccc3)c(-c3ccccc3)nc2c1` the EC50 was > 20 µM (inactive).
Work on `COc1ccc(-c2nc3nc(-c4ccc(C#N)cc4)cn3nc2-c2ccc(OC)cc2)cc1` yielded an EC50 of 2.4 µM.
With `COc1cccc(-c2cn3nc(-c4ccc(F)cc4)c(-c4ccc(F)cc4)nc3n2)c1` the EC50 was 11.1 µM.
Work on `COc1ccc(-c2cn3nc(-c4ccccc4)c(-c4ccccc4)nc3n2)c(OC)c1` yielded an EC50 of 13.2 µM.
`Fc1ccc(-c2nc3nc(-c4ccc(OC(F)(F)F)cc4)cn3nc2-c2ccc(F)cc2)cc1` was tested, and the EC50 was 15.3 µM.
`CCCOC(=O)Nc1ccc2nc(-c3cccs3)c(-c3cccs3)nc2c1` was tested, and the EC50 was > 20 µM (inactive).
`N#Cc1ccc(-c2cn3nc(-c4ccccc4)c(-c4ccccc4)nc3n2)cc1` was tested, and the EC50 was > 20 µM (inactive).
